# Measured values: PubChem BioAssay AID2060511 (Molecular Pharmacology Branch, DTP, NCI, 2025)
# Test system: 422866-222-R5-J1-PDC spheroids with HUVEC/MSC, viability
# Test: Anticancer human tumor 422866-222-R5-J1-PDC patient-derived pancreatic adenocarcinoma cell line growth inhibition [GQUAD]
# Settings: for viability, T/C: stronger effect = lower value
# Description: DNA G-quadruplex Stabilizer Agents in Combinations in Complex Spheroids
# A high-throughput screen of multi-cell type tumor spheroids was designed to identify active combinations of DNA G-quadruplex stabilizer agents and targeted small molecules. Complex spheroids include a stromal component modeled by human endothelial cells (HUVEC) and fibroblasts modeled by human mesenchymal stem cells (MSCs). The concentration ranges selected for each drug and investigational agent were based upon clinically achievable concentrations if the clinical Cmax of the agent was known.
# Compounds. The drugs and investigational agents: pidnarulex (CX-5461; NSC782164), APTO-253 (NSC789042), BRACO-19 (NSC847499), peposertib (NSC802822), ceralasertib (NSC780249), elimusertib (NSC800525), camonsertib (NSC841442), AZD-1390 (NSC803789), olaparib (NSC753686), talazoparib (NSC767125), ART-558 (NSC835418), sotorasib (NSC818433), MRTX-1133 (NSC836407), SN-38 (NSC673596), topotecan (NSC609699), etoposide (NSC141540), doxorubicin (NSC123127), gemcitabine (NSC613327), 5-fluorouracil (NSC19893), paclitaxel (NSC125973), vemurafenib (NSC761431), panobinostat (NSC761190), R-306465 (JNJ-16241199; NSC773264), adavosertib (NSC754352), TP-3654 (NSC805149), carboplatin (NSC241240), KSQ-4279 (NSC840948), and staurosporine (NSC755774) were obtained from the National Cancer Institute (NCI) Developmental Therapeutics Program Chemical Repository (34). The FDA-approved anticancer drug set is available from the NCI Developmental Therapeutics Program. […] The stock solutions were prepared in dimethyl sulfoxide (DMSO, Sigma-Aldrich, St. Louis, MO, cat. D2650) at 800-fold the tested concentration and stored at -70 degrees C prior to their use. All drugs and investigational agents were tested over a range starting from a high concentration at or near the clinical Cmax and decreasing in half-log increments. If the clinical Cmax for an agent had not been determined, the highest concentration tested was 10 microM.
# 2.3 Cell Culture. All cells were maintained in an incubator at 37 degrees C and 5% CO2 with 95% humidity. The PDC lines were cultured according to standard operating procedures established by the NCI PDMR. All PDCs were thawed and cultured in Matrigel-coated flasks prepared with a working solution of 1X Ham's F-12 nutrient mix, without supplementation (Invitrogen, cat. 11765054), 100 U/mL penicillin-streptomycin (Invitrogen, cat. 15140122), and 2.5% Matrigel (Corning Inc., cat. 354248) for the first three passages. The 857933-349-R-J2-PDC line was cultured in 6C/Colon 1B media, which includes advanced DMEM/F-12 (Thermo Fisher Scientific, cat. 12634028), 10 mM HEPES (Thermo Fisher Scientific, cat. 15630080), 1X GlutaMAX supplement (Thermo Fisher Scientific, cat. 35050061), 0.1 mg/mL primocin (InvivoGen, cat. ant-pm-2), 10% defined fetal bovine serum, heat inactivated (HyClone Laboratories Inc., cat. SH30070.03HI), 50% L-WRN conditioned media (ATCC, cat. CRL-3276), 1.25 mM N-Acetyl-L-cysteine (Sigma-Aldrich, cat. A9165), 10 mM nicotinamide (Sigma-Aldrich, cat. N0636), 1X B-27 supplement (Thermo Fisher Scientific, cat. 17504044), 1X N-2 supplement (Thermo Fisher Scientific, cat. 17502048), 10 microM Y-27632 dihydrochloride (Tocris Bioscience, cat. 1254), and 50 ng/mL human EGF recombinant protein (Thermo Fisher Scientific, cat. PHG0311). The 485176-168-R4-J1-PDC line was cultured in Panc media, which includes all 6C/Colon 1B media components plus 100 ng/mL human FGF-10 (Thermo Fisher Scientific, cat. 100-26), 500 nM SB-431542 (Selleckchem, cat. S1067), and gastrin (Tocris, cat. 3006).
# […]
# [1] = curve of first compound, second compound 0.0316 µM
# [2] = curve of first compound, second compound 0.1 µM
# [3] = curve of first compound, second compound 0.316 µM
# [4] = curve of first compound, second compound 1 µM
# [5] = curve of first compound, second compound 3.16 µM
# [6] = curve of first compound, second compound 10 µM
# [7] = second compound 0.0316 µM, first compound 0.0316 µM
# [8] = second compound 0.0316 µM, first compound 0.1 µM
# [9] = second compound 0.0316 µM, first compound 0.316 µM
# [10] = second compound 0.0316 µM, first compound 1 µM
# [11] = second compound 0.0316 µM, first compound 3.16 µM
# [12] = second compound 0.0316 µM, first compound 10 µM
# [13] = second compound 0.1 µM, first compound 0.0316 µM
# [14] = second compound 0.1 µM, first compound 0.1 µM
# [15] = second compound 0.1 µM, first compound 0.316 µM
# [16] = second compound 0.1 µM, first compound 1 µM
# [17] = second compound 0.1 µM, first compound 3.16 µM
# [18] = second compound 0.1 µM, first compound 10 µM
# [19] = second compound 0.316 µM, first compound 0.0316 µM
# [20] = second compound 0.316 µM, first compound 0.1 µM
# [21] = second compound 0.316 µM, first compound 0.316 µM
# [22] = second compound 0.316 µM, first compound 1 µM
# [23] = second compound 0.316 µM, first compound 3.16 µM
# [24] = second compound 0.316 µM, first compound 10 µM
# [25] = second compound 1 µM, first compound 0.0316 µM
# [26] = second compound 1 µM, first compound 0.1 µM
# [27] = second compound 1 µM, first compound 0.316 µM
# [28] = second compound 1 µM, first compound 1 µM
# [29] = second compound 1 µM, first compound 3.16 µM
# [30] = second compound 1 µM, first compound 10 µM
# [31] = second compound 3.16 µM, first compound 0.0316 µM
# [32] = second compound 3.16 µM, first compound 0.1 µM
# [33] = second compound 3.16 µM, first compound 0.316 µM
# [34] = second compound 3.16 µM, first compound 1 µM
# [35] = second compound 3.16 µM, first compound 3.16 µM
# [36] = second compound 3.16 µM, first compound 10 µM
# [37] = second compound 10 µM, first compound 0.0316 µM
# [38] = second compound 10 µM, first compound 0.1 µM
# [39] = second compound 10 µM, first compound 0.316 µM
# [40] = second compound 10 µM, first compound 1 µM
# [41] = second compound 10 µM, first compound 3.16 µM
# [42] = second compound 10 µM, first compound 10 µM
# 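Also: spheroids exposed to compounds for seven days before reading.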
# 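For viability, T/C in this document: percent viability relative to DMSO vehicle control taken as 100%.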
smiles,measurement,setting,value
COc1ncnc(C2CC2)c1-c1ncc2cnn(Cc3ccc(-c4nc(C(F)(F)F)cn4C(C)C)cc3)c2n1 + CN(C)c1ccc(Nc2c3ccc(NC(=O)CCN4CCCC4)cc3nc3cc(NC(=O)CCN4CCCC4)ccc23)cc1,IC50,[1],> 10000 nM
same,IC50,[2],> 10000 nM
same,IC50,[3],> 10000 nM
same,IC50,[4],> 10000 nM
same,IC50,[5],> 10000 nM
same,IC50,[6],> 10000 nM
same,"viability, T/C",[7],92.7%
same,"viability, T/C",[8],88.3%
same,"viability, T/C",[9],124%
same,"viability, T/C",[10],93%
same,"viability, T/C",[11],90%
same,"viability, T/C",[12],104%
same,"viability, T/C",[13],116%
same,"viability, T/C",[14],104%
same,"viability, T/C",[15],109%
same,"viability, T/C",[16],94.9%
same,"viability, T/C",[17],100%
same,"viability, T/C",[18],100%
same,"viability, T/C",[19],104%
same,"viability, T/C",[20],89.8%
same,"viability, T/C",[21],100%
same,"viability, T/C",[22],94.3%
same,"viability, T/C",[23],106%
same,"viability, T/C",[24],100%
same,"viability, T/C",[25],90.7%
same,"viability, T/C",[26],92.2%
same,"viability, T/C",[27],101%
same,"viability, T/C",[28],90.9%
same,"viability, T/C",[29],97.1%
same,"viability, T/C",[30],84.5%
same,"viability, T/C",[31],85.8%
same,"viability, T/C",[32],102%
same,"viability, T/C",[33],101%
same,"viability, T/C",[34],92.9%
same,"viability, T/C",[35],103%
same,"viability, T/C",[36],69.9%
same,"viability, T/C",[37],98.6%
same,"viability, T/C",[38],109%
same,"viability, T/C",[39],104%
same,"viability, T/C",[40],69.3%
same,"viability, T/C",[41],86.8%
same,"viability, T/C",[42],58%
Cc1cnc(CNC(=O)c2c(=O)c3ccc(N4CCCN(C)CC4)nc3n3c2sc2ccccc23)cn1,"viability, T/C",compound 0.1 µM,96.7% [middle of 12 runs]
same,"viability, T/C",compound 0.316 µM,90.4% [middle of 12 runs]
same,"viability, T/C",compound 1 µM,85.3% [middle of 12 runs]
same,"viability, T/C",compound 3.16 µM,87.8% [middle of 12 runs]
same,"viability, T/C",compound 10 µM,81% [middle of 11 runs]
same,IC50,"compound alone, run of 04/16/2024",> 10000 nM
COc1cccc2c1C(=O)c1c(O)c3c(c(O)c1C2=O)CC(O)(C(=O)CO)CC3OC1CC(N)C(O)C(C)O1 (stereo not given) + CN(C)c1ccc(Nc2c3ccc(NC(=O)CCN4CCCC4)cc3nc3cc(NC(=O)CCN4CCCC4)ccc23)cc1,IC50,[1],596 nM
same,IC50,[2],613 nM
same,IC50,[3],900 nM
same,IC50,[4],760 nM
same,IC50,[5],562 nM
same,IC50,[6],1000 nM
same,"viability, T/C",[7],95.2%
same,"viability, T/C",[8],66.8%
same,"viability, T/C",[9],64.3%
same,"viability, T/C",[10],42.9%
same,"viability, T/C",[11],32%
same,"viability, T/C",[12],32.3%
same,"viability, T/C",[13],103%
same,"viability, T/C",[14],73%
same,"viability, T/C",[15],56.8%
same,"viability, T/C",[16],48.8%
same,"viability, T/C",[17],33.9%
same,"viability, T/C",[18],37.9%
same,"viability, T/C",[19],89.5%
same,"viability, T/C",[20],66.3%
same,"viability, T/C",[21],65.7%
same,"viability, T/C",[22],48.3%
same,"viability, T/C",[23],37.8%
same,"viability, T/C",[24],37.5%
same,"viability, T/C",[25],72.2%
same,"viability, T/C",[26],59.5%
same,"viability, T/C",[27],55.5%
same,"viability, T/C",[28],51%
same,"viability, T/C",[29],40.4%
same,"viability, T/C",[30],33%
same,"viability, T/C",[31],74.3%
same,"viability, T/C",[32],68.5%
same,"viability, T/C",[33],56%
same,"viability, T/C",[34],44.8%
same,"viability, T/C",[35],35.1%
same,"viability, T/C",[36],36.5%
same,"viability, T/C",[37],93%
same,"viability, T/C",[38],69.4%
same,"viability, T/C",[39],65.9%
same,"viability, T/C",[40],48.1%
same,"viability, T/C",[41],41.1%
same,"viability, T/C",[42],33%
